Results from patent publication EP4711368A1 (priority 2023, dated 2024).
Read-outs that look alike come from different tables or passages of the source.

Tests used:
[1] = test system: SD rats; experiment: animal or person; assay type: in vivo; conditions: iv; for Minimal effective anesthetic dose / Onset time / Righting feflex duration / Sedation Duration / Minimal effective analgesic dose: rat, in vivo; for minimal effective dose: Rattus norvegicus
[2] = test system: SD rats; conditions: rat, in vivo; for MLD: iv; for Onset time: test concentration or dose not given here; for Righting feflex duration: test concentration or dose not given here; for Sedation Duration: test concentration or dose not given here
[3] = read-out: Minimal effective analgesic dose
[4] = read-out: Minimal effective anesthetic dose

CC(=O)OCCC1N=C(c2ccccn2)c2cc(Br)ccc2-n2c(C)cnc21.O=S(=O)(O)c1ccccc1 (stereo not shown) [Compound 145D]
Minimal effective anesthetic dose [1]: 7.5 mg/kg
Onset time [1]: 0.2 to 0.5 min
Righting feflex duration [1]: 1.7 to 19.9 min
Sedation Duration [1]: 23.0 to 63.0 min
TI [2]: >2.3
MLD [2]: >16.9 mg/kg

CC(C)C(C)OC(=O)CN1N=C(c2ccccn2)c2cc(Br)ccc2N(C)C1=O (stereo not shown) [Compound 249]
minimal effective dose [1, 3]: 15 mg/kg
minimal effective dose [1, 4]: 10 mg/kg
Onset time [1]: 0.50 to 0.62 min
Righting feflex duration [1]: 6.55 to 13.37 min
Sedation Duration [1]: 23.30 to 42.37 min
TI ([2]; SD): 2
MLD ([2]; SD): 20 mg/kg

CN1C(=O)C(CCC(=O)OC2COC2)N=C(c2ccccn2)c2cc(Br)ccc21 (stereo not shown) [Compound 16]
Minimal effective anesthetic dose [1]: 5.0 mg/kg
Onset time [1]: 0.2 to 0.5 min
Righting feflex duration [1]: 0.6 to 1.7 min
Sedation Duration [1]: 3.2 to 5.3 min
TI [2]: >4.5
MLD [2]: >22.5 mg/kg

CN1C(=O)N(COCc2ccccc2)N=C(c2ccccn2)c2cc(Br)ccc21 [Compound 286]
minimal effective dose [1, 4]: 2.5 mg/kg
Onset time [1]: 1.32 to 3.20 min
Righting feflex duration [1]: 3.38 to 9.38 min
Sedation Duration [1]: 42.15 to 64.37 min
TI ([2]; SD): 3
MLD ([2]; SD): 7.5 mg/kg

Cc1cnc2n1-c1ccc(Br)cc1C(c1ccccn1)=NN2COC(=O)N(C)C [Compound 320]
minimal effective dose [1, 3]: 15 mg/kg
minimal effective dose [1, 4]: 15 mg/kg
Onset time [1]: 0.65 to 0.92 min
Righting feflex duration [1]: 2.03 to 5.98 min
TI ([2]; SD): 2
MLD ([2]; SD): 30 mg/kg

Cc1cnc2n1-c1ccc(Br)cc1C(c1ccccn1)=NC2CCOC(=O)CCCl (stereo not shown) [Compound 150]
Minimal effective anesthetic dose [1]: 2.5 mg/kg
Onset time [1]: 0.2 to 0.4 min
Righting feflex duration [1]: 0.8 to 13.5 min
Sedation Duration [1]: 16.9 to 33.9 min
TI [2]: 5.5
MLD [2]: 13.7 mg/kg

Cc1cnc2n1-c1ccc(Br)cc1C(c1ccccn1)=NC2CCC(=O)OC1COC1 (stereo not shown) [Compound 4]
Minimal effective anesthetic dose [1]: 15.0 mg/kg
Onset time [1]: 0.2 to 0.4 min
Righting feflex duration [1]: 1.1 to 3.5 min
Sedation Duration [1]: 4.2 to 10.8 min
TI [2]: >1.5
MLD [2]: >22.5 mg/kg

CC(C)OC(=O)CCC1N=C(c2ccccn2)c2cc3nc(C(F)(F)F)sc3cc2N(C)C1=O (stereo not shown) [Compound 181]
Minimal effective analgesic dose [1]: 40 mg/kg
Minimal effective anesthetic dose [1]: 40.0 mg/kg
Onset time [1]: 0.8 min
Righting feflex duration [1]: 7.8 min
Sedation Duration [1]: 53.0 min
TI [2]: >1.0
MLD [2]: >40 mg/kg

CCOC(=O)CN1N=C(c2ccccn2)C=CN(C)C1=O [Compound 347]
minimal effective dose [1, 3]: 20 mg/kg
minimal effective dose [1, 4]: 20 mg/kg
Onset time [1]: 0.13 to 0.28 min
Righting feflex duration [1]: 2.25 to 4.47 min
Sedation Duration [1]: 15.35 to 54.20 min
TI ([2]; SD): 2
MLD [2]: 40 mg/kg

CN1C(=O)N(COC(=O)CCl)N=C(c2ccccn2)c2cc(Br)ccc21 [Compound 288]
minimal effective dose [1, 4]: 15 mg/kg
Onset time [1]: 0.80 min
Righting feflex duration [1]: 2.45 min
Sedation Duration [1]: 33.18 min
TI ([2]; SD): 1.3
MLD ([2]; SD): 20 mg/kg

CC(C)OC(=O)OC1N=C(c2ccccn2)c2cc(Br)ccc2N(C)C1=O (stereo not shown) [Compound 166]
Minimal effective analgesic dose [1]: 20 mg/kg
Minimal effective anesthetic dose [1]: 20.0 mg/kg
Onset time [1]: 0.4 min
Righting feflex duration [1]: 20.7 min
Sedation Duration [1]: 64.0 min
TI [2]: 2.0
MLD [2]: 38.9 mg/kg

C=CC(C)OC(=O)CN1N=C(c2ccccn2)c2cc(Br)ccc2N(C)C1=O (stereo not shown) [Compound 248]
minimal effective dose [1, 3]: 20 mg/kg
minimal effective dose [1, 4]: 10 mg/kg
Onset time [1]: 0.15 to 0.52 min
Righting feflex duration [1]: 2.97 to 38.32 min
Sedation Duration [1]: 138.4 to 240 min
TI ([2]; SD): 4
MLD ([2]; SD): 40 mg/kg

Cc1cnc2n1-c1ccc(Br)cc1C(c1ccccn1)=NC2CCOC(=O)N(C)C.O=S(=O)(O)c1ccccc1 (stereo not shown) [Compound 156D]
Minimal effective anesthetic dose [1]: 5.0 mg/kg
Onset time [1]: 0.2 to 0.6 min
Righting feflex duration [1]: 0.6 to 10.9 min
Sedation Duration [1]: 12.8 to 36.9 min
TI [2]: >1.5
MLD [2]: >7.5 mg/kg

CC(C)COC(=O)CN1N=C(c2ccccn2)c2cc(Br)ccc2N(C)C1=O [Compound 240]
minimal effective dose [1, 3]: 30 mg/kg
minimal effective dose [1, 4]: 10 mg/kg
Onset time [1]: 0.30 to 0.48 min
Righting feflex duration [1]: 0.62 to 15.83 min
Sedation Duration [1]: 15.27 to 36.70 min
TI ([2]; SD): 3
MLD ([2]; SD): 30 mg/kg

Cc1cnc2n1-c1ccc(Br)cc1C(c1ccccn1)=NC2CCOC(=O)N(C)C (stereo not shown) [Compound 156]
Minimal effective anesthetic dose [1]: 1.8 mg/kg
Onset time [1]: 0.2 to 0.4 min
Righting feflex duration [1]: 1.7 to 31.9 min
Sedation Duration [1]: 9.3 to 91.5 min
TI [2]: 11.1
MLD [2]: 20 mg/kg

CC(OC(=O)CN1N=C(c2ccccn2)c2cc(Br)ccc2N(C)C1=O)C1CC1 (stereo not shown) [Compound 250]
minimal effective dose [1, 4]: 20 mg/kg
Onset time [1]: 0.53 min
Righting feflex duration [1]: 13.62 min
Sedation Duration [1]: 21.55 min
TI ([2]; SD): >1

Cc1cnc2n1-c1ccc(Br)cc1C(c1ccccn1)=NC2CCOC(=O)CCl (stereo not shown) [Compound 148]
Minimal effective anesthetic dose [1]: 1.8 mg/kg
Onset time [1]: 0.2 to 1.1 min
Righting feflex duration [1]: 1.0 to 60.8 min
Sedation Duration [1]: 20.1 to 82.4 min
TI [2]: 33.3
MLD [2]: 60 mg/kg

C#C[C@@H](C)OC(=O)CN1N=C(c2ccccn2)c2cc(Br)ccc2-n2c(C)cnc21 [Compound 312]
minimal effective dose [1, 3]: 10 mg/kg
minimal effective dose [1, 4]: 10 mg/kg
Onset time [1]: 0.15 to 0.52 min
Righting feflex duration [1]: 2.97 to 38.32 min
Sedation Duration [1]: 138.40 to 240 min
TI ([2]; SD): 4
MLD ([2]; SD): 40 mg/kg

CCC(=O)OCCC1N=C(c2ccccn2)c2cc(Br)ccc2-n2c(C)cnc21 (stereo not shown) [Compound 147]
Minimal effective anesthetic dose [1]: 2.5 mg/kg
Onset time [1]: 0.2 to 0.5 min
Sedation Duration [1]: 27.0 to 48.7 min
TI [2]: 6.0
MLD [2]: 15 mg/kg

CN1C(=O)N(CC(=O)OC2COC2)N=C(c2ccccn2)c2cc(Br)ccc21 [Compound 245]
minimal effective dose [1, 3]: 20 mg/kg
minimal effective dose [1, 4]: 10 mg/kg
Onset time [1]: 0.15 to 0.67 min
Righting feflex duration [1]: 1.27 to 1.40 min
Sedation Duration [1]: 11.02 to 18.83 min
TI ([2]; SD): 4
MLD ([2]; SD): 40 mg/kg

CCC(C)(C)OC(=O)CN1N=C(c2ccccn2)c2cc(Br)ccc2-n2c(C)cnc21 [Compound 313]
minimal effective dose [1, 3]: 20 mg/kg
minimal effective dose [1, 4]: 15 mg/kg
Onset time [1]: 0.53 to 0.97 min
Righting feflex duration [1]: 12.27 to 13.62 min
Sedation Duration [1]: 43.43 to 66.15 min
TI ([2]; SD): 2
MLD ([2]; SD): 30 mg/kg

CN1C(=O)C(CCO)N=C(c2ccccn2)c2cc(Br)ccc21 (stereo not shown) [Compound 117]
Minimal effective anesthetic dose [1]: 25.0 mg/kg
Onset time [1]: 0.4 to 0.5 min
Righting feflex duration [1]: 2.7 to 3.8 min
Sedation Duration [1]: 14.6 to 32.0 min
TI [2]: 1.6
MLD [2]: 40 mg/kg

CC(C)n1nnc(CCN2N=C(c3ccccn3)c3cc(Br)ccc3N(C)C2=O)n1 [Compound 267]
minimal effective dose [1, 4]: 20 mg/kg
Onset time [1]: 0.72 min
Righting feflex duration [1]: 0.28 min
Sedation Duration [1]: 12.33 min
TI ([2]; SD): 2
MLD ([2]; SD): 40 mg/kg

CC(F)C(=O)OCCN1N=C(c2ccccn2)c2cc(Br)ccc2N(C)C1=O (stereo not shown) [Compound 303]
minimal effective dose [1, 4]: 20 mg/kg
Onset time [1]: 0.43 min
Righting feflex duration [1]: 14.30 min
Sedation Duration [1]: 74.88 min
TI ([2]; SD): >1
MLD ([2]; SD): >20 mg/kg

C=CC(C)(C)OC(=O)CCC1N=C(c2ccccn2)c2cc(Br)ccc2N(C)C1=O (stereo not shown) [Compound 19]
Minimal effective anesthetic dose [1]: 1.0 mg/kg
Onset time [1]: 0.4 to 1.0 min
Righting feflex duration [1]: 1.2 to 5.5 min
Sedation Duration [1]: 9.7 to 14.8 min
TI [2]: >1.9
MLD [2]: >1.9 mg/kg

CC(C)Oc1nonc1CCN1N=C(c2ccccn2)c2cc(Br)ccc2N(C)C1=O [Compound 275]
minimal effective dose [1, 4]: 30 mg/kg
Onset time [1]: 0.93 to 4.90 min
Righting feflex duration [1]: 6.37 to 17.25 min
TI ([2]; SD): >2
MLD ([2]; SD): >60 mg/kg

CC(C)n1nnnc1CCN1N=C(c2ccccn2)c2cc(Br)ccc2N(C)C1=O [Compound 266]
minimal effective dose [1, 4]: 5 mg/kg
Onset time [1]: 0.40 to 0.52 min
Righting feflex duration [1]: 0.58 to 4.00 min
Sedation Duration [1]: 12.07 to 16.32 min
TI ([2]; SD): 3
MLD [2]: 15 mg/kg

CC(C)OC(=O)OCN1N=C(c2ccccn2)c2cc(Br)ccc2N(C)C1=O [Compound 289]
minimal effective dose [1, 3]: 20 mg/kg
minimal effective dose [1, 4]: 5 mg/kg
Onset time [1]: 0.15 to 0.68 min
Righting feflex duration [1]: 0.53 to 32.23 min
Sedation Duration [1]: 20.27 to 311.87 min
TI ([2]; SD): 8.3
MLD ([2]; SD): 41.7 mg/kg

Cc1cnc2n1-c1ccc(Br)cc1C(c1ccccn1)=NC2CCOC(=O)C1COC1 (stereo not shown) [Compound 153]
Minimal effective anesthetic dose [1]: 7.5 mg/kg
Onset time [1]: 0.3 to 0.4 min
Righting feflex duration [1]: 2.9 to 5.8 min
Sedation Duration [1]: 20.0 to 21.9 min
TI [2]: 2.7
MLD [2]: 20 mg/kg

CN1C(=O)N(COC(=O)N2CCCC2)N=C(c2ccccn2)c2cc(Br)ccc21 [Compound 295]
minimal effective dose [1, 4]: 20 mg/kg
Onset time [1]: 0.20 to 0.52 min
Righting feflex duration [1]: 3.70 to 13.25 min
Sedation Duration [1]: 34.23 to 172.50 min
TI ([2]; SD): 2
MLD ([2]; SD): 40 mg/kg

CCOC(=O)OCCC1N=C(c2ccccn2)c2cc(Br)ccc2-n2c(C)cnc21 (stereo not shown) [Compound 154]
Minimal effective anesthetic dose [1]: 3.8 mg/kg
Onset time [1]: 0.5 to 0.9 min
Righting feflex duration [1]: 1.3 to 6.2 min
Sedation Duration [1]: 14.1 to 17.0 min
TI [2]: 2.0
MLD [2]: 7.5 mg/kg
